Four compounds from ChEMBL document CHEMBL1127719, “Synthesis and serotonergic activity of benzofuran and dihydrogenzofuran analogues of 5-carboxamidotryptamine” (Bioorg Med Chem Lett, 1994) can be followed below.

Test [1] deals with T1, 5-hydroxytryptamine receptor 3A (Rattus norvegicus, UniProt P35563).
T1 sequence (P35563 whole entry): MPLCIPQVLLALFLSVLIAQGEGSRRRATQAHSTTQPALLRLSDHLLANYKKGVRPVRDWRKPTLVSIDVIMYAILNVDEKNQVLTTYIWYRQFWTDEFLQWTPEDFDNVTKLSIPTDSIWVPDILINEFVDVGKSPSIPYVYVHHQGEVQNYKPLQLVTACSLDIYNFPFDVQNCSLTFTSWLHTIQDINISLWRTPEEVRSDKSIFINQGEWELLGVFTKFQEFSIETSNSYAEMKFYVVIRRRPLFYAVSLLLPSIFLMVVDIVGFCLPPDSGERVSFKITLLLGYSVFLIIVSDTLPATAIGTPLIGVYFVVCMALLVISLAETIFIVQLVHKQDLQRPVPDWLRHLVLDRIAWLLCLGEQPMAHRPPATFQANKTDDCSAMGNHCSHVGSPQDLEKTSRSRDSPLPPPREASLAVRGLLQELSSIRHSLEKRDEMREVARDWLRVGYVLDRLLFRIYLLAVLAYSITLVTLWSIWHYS
The experiment in a line: In Vitro Binding affinity againist 5-hydroxytryptamine 3 receptor by displacing [3H]-Q-ICS 205-930 from rat cortex homogenates.

Test [2] has as its target 5-hydroxytryptamine receptor 2A (Rattus norvegicus, UniProt P14842). The experiment in a line: In Vitro Binding affinity againist 5-HT2A receptor by displacing [3H]-DOB from rat cortex homogenates.
The species named for test [3] is Oryctolagus cuniculus. Put plainly: Relative maximum in rabbit by obtaining the maximum contraction relative to the maximum response with 1 uM 5-HT. Format: functional.
For test [4], the species on record is Oryctolagus cuniculus. Put plainly: In Vitro functional activity in rabbit saphenous vein.

Sequence of 5-hydroxytryptamine receptor 2A (P14842 whole entry): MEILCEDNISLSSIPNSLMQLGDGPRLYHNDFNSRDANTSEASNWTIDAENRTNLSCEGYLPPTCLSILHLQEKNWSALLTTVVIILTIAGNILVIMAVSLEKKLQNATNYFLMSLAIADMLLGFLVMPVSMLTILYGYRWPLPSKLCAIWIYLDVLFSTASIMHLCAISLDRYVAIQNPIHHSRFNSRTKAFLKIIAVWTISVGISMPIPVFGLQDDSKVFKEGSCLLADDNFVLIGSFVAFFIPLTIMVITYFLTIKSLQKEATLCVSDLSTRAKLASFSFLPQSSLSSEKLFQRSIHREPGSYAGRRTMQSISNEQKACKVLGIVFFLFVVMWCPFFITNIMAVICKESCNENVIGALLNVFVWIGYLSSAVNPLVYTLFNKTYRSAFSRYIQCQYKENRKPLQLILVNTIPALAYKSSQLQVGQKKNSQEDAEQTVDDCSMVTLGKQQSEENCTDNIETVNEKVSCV

The term IC50 denotes the concentration that inhibits the measured activity by half. `CN(C)CCc1coc2ccc(C(N)=O)cc12`: the IC50 in test [1] was 3.98 µM; in test [2], 3.39 µM.

The EC50 is the midpoint of the concentration-response curve. Consider `NCCc1c[nH]c2ccc(C(N)=O)cc12`, for which, in test [2], the IC50 was 21.9 µM. The compound also registered an Activity in test [3] of 1.06. Also, the concentration for a half-maximal effect (EC50) in test [4] is 0.0282 µM.

With `NCCC1COc2ccc(C(N)=O)cc21` (stereo unspecified), the IC50 in test [1] is 4.27 µM; in test [2], above 10 µM.

Turning to `NCCc1coc2ccc(C(N)=O)cc12`, the half-maximal inhibitory concentration (IC50) in test [1] is 7.41 µM; in test [2] it was 1.7 µM. In addition, in test [3], the Activity is 1.2. In test [4], this compound had an EC50 of 0.158 µM.
